Values of other authors as cited in US20220117972A1, “USE OF PPAR-DELTA AGONISTS IN THE TREATMENT OF MITOCHONDRIAL MYOPATHY” (Reneo Pharmaceuticals, Inc., priority 2019, published 2022).

Tested on: control myoblasts
Settings: cultured patient muscle cells study; cited from earlier work

| SMILES | FAO stimulation |
| --- | --- |
| Cc1cc(SCc2sc(-c3ccc(C(F)(F)F)c(F)c3)nc2C)ccc1OCC(=O)O [GW 072] | stimulated FAO |
| CC(C)(Sc1ccc(CCN(CCCCC2CCCCC2)C(=O)NC2CCCCC2)cc1)C(=O)O [GW 7647] | to a lower extent |
